Measurements as given in patent US7829063B2, “Development of molecular imaging probes for carbonic anhydrase-IX using click chemistry” (Siemens Medical Solutions USA, Inc., priority 2007, dated 2010).

molecular target: T1, CA-IX (Homo sapiens, UniProt Q16790); test: CA-IX combinatorial library screening, competitive fluorescence-based assay with dansylamide (DNSA); assay type: binding; conditions: 1 h; Table 2, Libraries 4-7; sample concentrations 100 nM and 1000 nM, DNSA 200 μM; screening at 1 μM; read-out: In Vitro Binding Assay (Library (Screening))
T1 construct: His tag (C); purchased R&D Systems Inc. 2188-CA; host or cells: mouse myeloma cell line NS0
Description: General. CA-IX human recombinant enzyme was expressed with a C-terminal His tag in a mouse myeloma cell line, NS0 (R&D Systems Inc., catalog number 2188-CA). The human red blood cells were obtained from Research Blood Components, LLC. All absorbance measurements were performed on a SPECTRA MAX M2 plate reader at 25° C. The LC/MS analyses were performed on an Agilent 1100 series LC/MSD (SL) using a 30×2.1 mm Zorbax C8 column with a Phenomenex C18 pre-column. Compound detection was accomplished by electrospray mass spectroscopy in positive selected ion mode (LC/MS-SIM). The elution solvents were acetonitrile and water, contained 0.05% TFA. Nuclear magnetic resonance (NMR) spectra were obtained on a Bruker AMX 300 MHz spectrometer or a Varian 400. 19F NMR spectra were recorded on a Bruker AMX 282.35 MHz or a Varian 400 spectrometer. The mass spectra were recorded on an Agilent 1100 series LC/MSD with electrospray mass spectroscopic detection. Flash column chromatography was performed on Merck silica gel (40-63 μm) using the solvent system indicated. The radiochemical and chemical purities were analyzed by RP-HPLC.
General Combinatorial Library Screening Protocol for CA-IX
The CA-IX screening assay was employed for testing libraries derived from the various “anchor” molecules, using ethoxzolamide as a positive control. The assay was performed at a substrate (dansylamide, DNSA) concentration of 200 μM, and sample concentrations of 100 nM and 1000 nM, respectively. A modified competitive fluorescence-based assay (A. Jain, S. G. Huang, G. M. Whitesides, J. Am. Chem. Soc. 1994, 116, 5057) was used to measure CA-IX activity. The enzymatic assay was carried out in a 96-well plate. To the wells, deionized water, 40 μL of phosphate buffer (250 mM, pH 7.4), 2.4 μL of CA-IX (17 μM), and 2 μL or 20 μL of inhibitor (concentration of 100 nM or 1000 nM) were added to achieve a final volume of 180 μL. Reactions were initiated by adding 20 μL DNSA (200 μM) to each well and the plate was incubated at 25° C. for 1 hour. The fluorescence intensities from each well of the plate were then read at 460 nm using a plate reader with an excitation wavelength of 290 nm.

Row | SMILES | inhibition at 1 µM
1 | Cc1onc(-c2ccccc2)c1CNC(=O)[C@H](Cc1ccccc1)n1cc(-c2ccc(S(N)(=O)=O)cc2)nn1 [DHK-2-15] | < 40%
2 | CCOC(=O)CCN(Cc1ccco1)C(=O)[C@H](Cc1ccccc1)n1cc(-c2ccc(S(N)(=O)=O)cc2)nn1 [DHK-2-16] | < 40%
3 | CCOC(=O)C1CCN(C(=O)[C@H](Cc2ccccc2)n2cc(-c3ccc(S(N)(=O)=O)cc3)nn2)CC1 [DHK-2-17] | < 40%
4 | NS(=O)(=O)c1ccc(-c2cn([C@@H](Cc3ccccc3)C(=O)N3CCC(CCO)CC3)nn2)cc1 [DHK-2-18] | < 40%
5 | NS(=O)(=O)c1ccc(-c2cn([C@@H](Cc3ccccc3)C(=O)NC3c4ccccc4C[C@@H]3O)nn2)cc1 (stereo partly drawn) [DHK-2-19] | < 40%
6 | NS(=O)(=O)c1ccc(-c2cn([C@@H](Cc3ccccc3)C(=O)NCC3COc4ccccc4O3)nn2)cc1 (stereo partly drawn) [DHK-2-20] | < 40%
7 | NS(=O)(=O)c1ccc(-c2cn([C@@H](Cc3ccccc3)C(=O)N3CCC(N4CCCC4)CC3)nn2)cc1 [DHK-2-21] | < 40%
8 | Cn1c(CNC(=O)[C@H](Cc2ccccc2)n2cc(-c3ccc(S(N)(=O)=O)cc3)nn2)nc2ccccc21 [DHK-2-22] | < 40%
9 | NS(=O)(=O)c1ccc(-c2cn([C@@H](Cc3ccccc3)C(=O)NCCN3CCN(Cc4ccccc4)CC3)nn2)cc1 [DHK-2-23] | < 40%
10 | CC(C)[C@@H](C(=O)NCc1ccc(F)cc1)n1cc(COc2ccc3nc(S(N)(=O)=O)sc3c2)nn1 [DHK-2-25] | < 40%
11 | CC(C)[C@@H](C(=O)N(C)Cc1ccccc1)n1cc(COc2ccc3nc(S(N)(=O)=O)sc3c2)nn1 [DHK-2-26] | < 40%
12 | CC(C)[C@@H](C(=O)NCCSCc1ccc(CN(C)C)o1)n1cc(COc2ccc3nc(S(N)(=O)=O)sc3c2)nn1 [DHK-2-27] | < 40%
13 | CC(C)[C@@H](C(=O)N1CCN(c2ncccn2)CC1)n1cc(COc2ccc3nc(S(N)(=O)=O)sc3c2)nn1 [DHK-2-28] | < 40%
14 | CC(C)[C@@H](C(=O)NCc1ccc(-c2ccccn2)s1)n1cc(COc2ccc3nc(S(N)(=O)=O)sc3c2)nn1 [DHK-2-29] | < 40%
15 | CC(C)[C@@H](C(=O)N1CCC[C@@H]1CO)n1cc(COc2ccc3nc(S(N)(=O)=O)sc3c2)nn1 [DHK-2-30] | < 40%
16 | CC(C)[C@@H](C(=O)N1CCN(c2ccccn2)CC1)n1cc(COc2ccc3nc(S(N)(=O)=O)sc3c2)nn1 [DHK-2-31] | < 40%
17 | CCOC(=O)C(Cc1ccccc1)NC(=O)[C@H](C(C)C)n1cc(COc2ccc3nc(S(N)(=O)=O)sc3c2)nn1 (stereo partly drawn) [DHK-2-32] | < 40%
18 | CCOC(=O)C(NC(=O)[C@H](C(C)C)n1cc(COc2ccc3nc(S(N)(=O)=O)sc3c2)nn1)C(C)C (stereo partly drawn) [DHK-2-33] | < 40%
19 | COC(=O)C(C)NC(=O)[C@H](C(C)C)n1cc(COc2ccc3nc(S(N)(=O)=O)sc3c2)nn1 (stereo partly drawn) [DHK-2-34] | < 40%
20 | CC(C)[C@@H](C(=O)NCc1ccccn1)n1cc(COc2ccc3nc(S(N)(=O)=O)sc3c2)nn1 [DHK-2-35] | < 40%
21 | CC(C)[C@@H](C(=O)NC1CCCCC1)n1cc(COc2ccc3nc(S(N)(=O)=O)sc3c2)nn1 [DHK-2-36] | < 40%
22 | CC(C)[C@@H](C(=O)NCC1CC1)n1cc(COc2ccc3nc(S(N)(=O)=O)sc3c2)nn1 [DHK-2-37] | < 40%
23 | CC(C)[C@@H](C(=O)NCCCO)n1cc(COc2ccc3nc(S(N)(=O)=O)sc3c2)nn1 [DHK-2-38] | < 40%
24 | Cc1onc(-c2ccccc2)c1CNC(=O)[C@H](C(C)C)n1cc(COc2ccc3nc(S(N)(=O)=O)sc3c2)nn1 [DHK-2-39] | < 40%
25 | CC(C)[C@@H](C(=O)N1CCN(CCO)CC1)n1cc(COc2ccc3nc(S(N)(=O)=O)sc3c2)nn1 [DHK-2-42] | < 40%

Now from value to compound:

Row | inhibition at 1 µM | SMILES
26 | < 40% | CC(C)[C@@H](C(=O)N[C@@H]1c2ccccc2C[C@@H]1O)n1cc(COc2ccc3nc(S(N)(=O)=O)sc3c2)nn1 [DHK-2-43]
27 | < 40% | CC(C)[C@@H](C(=O)N1CCC(N2CCCC2)CC1)n1cc(COc2ccc3nc(S(N)(=O)=O)sc3c2)nn1 [DHK-2-45]
28 | < 40% | CC(C)[C@@H](C(=O)NCCN1CCN(Cc2ccccc2)CC1)n1cc(COc2ccc3nc(S(N)(=O)=O)sc3c2)nn1 [DHK-2-47]
29 | < 40% | NS(=O)(=O)c1nc2ccc(OCc3cn([C@@H](Cc4ccccc4)C(=O)NCc4ccc(F)cc4)nn3)cc2s1 [DHK-2-52]
30 | < 40% | CN(Cc1ccccc1)C(=O)[C@H](Cc1ccccc1)n1cc(COc2ccc3nc(S(N)(=O)=O)sc3c2)nn1 [DHK-2-53]
31 | < 40% | CN(C)Cc1ccc(CSCCNC(=O)[C@H](Cc2ccccc2)n2cc(COc3ccc4nc(S(N)(=O)=O)sc4c3)nn2)o1 [DHK-2-54]
32 | < 40% | NS(=O)(=O)c1nc2ccc(OCc3cn([C@@H](Cc4ccccc4)C(=O)N4CCN(c5ncccn5)CC4)nn3)cc2s1 [DHK-2-55]
33 | < 40% | NS(=O)(=O)c1nc2ccc(OCc3cn([C@@H](Cc4ccccc4)C(=O)NCc4ccc(-c5ccccn5)s4)nn3)cc2s1 [DHK-2-56]
34 | < 40% | NS(=O)(=O)c1nc2ccc(OCc3cn([C@@H](Cc4ccccc4)C(=O)N4CCC[C@@H]4CO)nn3)cc2s1 [DHK-2-57]
35 | < 40% | NS(=O)(=O)c1nc2ccc(OCc3cn([C@@H](Cc4ccccc4)C(=O)N4CCN(c5ccccn5)CC4)nn3)cc2s1 [DHK-2-58]
36 | < 40% | CCOC(=O)C(Cc1ccccc1)NC(=O)[C@H](Cc1ccccc1)n1cc(COc2ccc3nc(S(N)(=O)=O)sc3c2)nn1 (stereo partly drawn) [DHK-2-59]
37 | < 40% | COC(=O)C(NC(=O)[C@H](Cc1ccccc1)n1cc(COc2ccc3nc(S(N)(=O)=O)sc3c2)nn1)C(C)C (stereo partly drawn) [DHK-2-60]
38 | < 40% | NS(=O)(=O)c1nc2ccc(OCc3cn([C@@H](Cc4ccccc4)C(=O)NCc4ccccn4)nn3)cc2s1 [DHK-2-62]
39 | < 40% | NS(=O)(=O)c1nc2ccc(OCc3cn([C@@H](Cc4ccccc4)C(=O)NC4CCCCC4)nn3)cc2s1 [DHK-2-63]
40 | < 40% | NS(=O)(=O)c1nc2ccc(OCc3cn([C@@H](Cc4ccccc4)C(=O)NCC4CC4)nn3)cc2s1 [DHK-2-64]
41 | < 40% | NS(=O)(=O)c1nc2ccc(OCc3cn([C@@H](Cc4ccccc4)C(=O)NCCCO)nn3)cc2s1 [DHK-2-65]
42 | < 40% | CCOC(=O)CCN(Cc1ccco1)C(=O)[C@H](Cc1ccccc1)n1cc(COc2ccc3nc(S(N)(=O)=O)sc3c2)nn1 [DHK-2-67]
43 | < 40% | NS(=O)(=O)c1nc2ccc(OCc3cn([C@@H](Cc4ccccc4)C(=O)N4CCN(CCO)CC4)nn3)cc2s1 [DHK-2-69]
44 | < 40% | NS(=O)(=O)c1nc2ccc(OCc3cn([C@@H](Cc4ccccc4)C(=O)N[C@@H]4c5ccccc5C[C@@H]4O)nn3)cc2s1 [DHK-2-70]
45 | < 40% | NS(=O)(=O)c1nc2ccc(OCc3cn([C@@H](Cc4ccccc4)C(=O)N4CCC(N5CCCC5)CC4)nn3)cc2s1 [DHK-2-72]
46 | < 40% | Cn1c(CNC(=O)[C@H](Cc2ccccc2)n2cc(COc3ccc4nc(S(N)(=O)=O)sc4c3)nn2)nc2ccccc21 [DHK-2-73]

same assay, conditions: Table 2, Libraries 4-7; sample concentrations 100 nM and 1000 nM, DNSA 200 μM; screening at 1 μM

Row | SMILES | In Vitro Binding Assay (Library Screening)
47 | CC(C)[C@@H](C(=O)NCc1ccc(C(F)(F)F)cc1)n1cc(COc2ccc3nc(S(N)(=O)=O)sc3c2)nn1 [DHK-2-24] | √ √
48 | CCOC(=O)C1CCN(C(=O)[C@H](C(C)C)n2cc(COc3ccc4nc(S(N)(=O)=O)sc4c3)nn2)CC1 [DHK-2-41] | √

Now from value to compound:

Row | In Vitro Binding Assay (Library Screening) | SMILES
49 | √ | CC(C)[C@@H](C(=O)NCC1COc2ccccc2O1)n1cc(COc2ccc3nc(S(N)(=O)=O)sc3c2)nn1 (stereo partly drawn) [DHK-2-44]
50 | √ | NS(=O)(=O)c1nc2ccc(OCc3cn([C@@H](Cc4ccccc4)C(=O)NCc4ccc(C(F)(F)F)cc4)nn3)cc2s1 [DHK-2-51]
51 | √ | COC(=O)C(C)NC(=O)[C@H](Cc1ccccc1)n1cc(COc2ccc3nc(S(N)(=O)=O)sc3c2)nn1 (stereo partly drawn) [DHK-2-61]
52 | √ √ | Cc1onc(-c2ccccc2)c1CNC(=O)[C@H](Cc1ccccc1)n1cc(COc2ccc3nc(S(N)(=O)=O)sc3c2)nn1 [DHK-2-66]
53 | √ | CCOC(=O)C1CCN(C(=O)[C@H](Cc2ccccc2)n2cc(COc3ccc4nc(S(N)(=O)=O)sc4c3)nn2)CC1 [DHK-2-68]
54 | √ | NS(=O)(=O)c1nc2ccc(OCc3cn([C@@H](Cc4ccccc4)C(=O)NCC4COc5ccccc5O4)nn3)cc2s1 (stereo partly drawn) [DHK-2-71]
